The values that follow come from US20260085073A1, “PYRAZOLYLCARBOXAMIDE COMPOUNDS AND THEIR USE IN THERAPY” (Hotspot Therapeutics, Inc., priority 2022, published 2026).

The structures appear in SMILES notation. Some results are limits rather than exact numbers.

This assay has as its target T1, MALT1 (Homo sapiens, UniProt Q9UDY8).
T1 construct: Avi-tagged FL MALT-1 (Pharmaron, stored at −70° C.); Avi-tag
T1 sequence (Q9UDY8 1-824): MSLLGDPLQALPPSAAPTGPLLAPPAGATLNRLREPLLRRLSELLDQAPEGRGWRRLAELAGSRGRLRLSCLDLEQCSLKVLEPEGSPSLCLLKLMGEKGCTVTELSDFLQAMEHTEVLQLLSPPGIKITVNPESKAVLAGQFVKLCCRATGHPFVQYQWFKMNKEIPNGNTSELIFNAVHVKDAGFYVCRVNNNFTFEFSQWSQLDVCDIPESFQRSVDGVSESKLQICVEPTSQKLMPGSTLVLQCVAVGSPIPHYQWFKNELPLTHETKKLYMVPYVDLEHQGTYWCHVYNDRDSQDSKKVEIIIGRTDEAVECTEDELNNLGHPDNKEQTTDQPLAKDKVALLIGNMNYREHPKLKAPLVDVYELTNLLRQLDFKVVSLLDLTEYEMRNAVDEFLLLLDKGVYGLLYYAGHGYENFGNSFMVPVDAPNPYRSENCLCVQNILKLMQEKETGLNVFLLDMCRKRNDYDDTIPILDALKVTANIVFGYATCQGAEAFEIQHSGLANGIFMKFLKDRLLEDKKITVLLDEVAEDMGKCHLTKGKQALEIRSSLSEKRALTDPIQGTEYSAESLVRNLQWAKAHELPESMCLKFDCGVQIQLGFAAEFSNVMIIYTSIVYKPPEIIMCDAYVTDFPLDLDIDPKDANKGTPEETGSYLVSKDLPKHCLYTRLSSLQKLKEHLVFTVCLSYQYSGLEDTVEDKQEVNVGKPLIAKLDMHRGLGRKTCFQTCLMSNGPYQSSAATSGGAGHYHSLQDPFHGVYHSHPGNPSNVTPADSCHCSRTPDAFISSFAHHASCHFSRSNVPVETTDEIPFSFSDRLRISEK
In words: MALT1 inhibition assay (MALT-1 Fluorogenic Peptide Cleavage Assay, Ac-LRSR-AMC substrate). It is filed as biochemical. The note with it: Avi-tagged FL MALT-1, 30 min pre-incubation, 90 min reaction at room temperature, fluorescence intensity. An outline of the steps: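 Full-length Avi-tagged MALT1 pre-incubated 30 min at room temperature with compounds (2% DMSO final) in HEPES pH 6.89, sodium citrate, TCEP, EDTA, CHAPS buffer. Ac-LRSR-AMC added from 50 µM (Km) or […] working stocks; 90 min at room temperature, AMC fluorescence (ex 342/em 441 nm); IC50 from % inhibition curves.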
As to `Cn1nc(-c2c(F)ccc3nc(N)sc23)c(C(F)(F)F)c1C(=O)Nc1ccnc(C(F)(F)F)c1` [Compound I-251], the 50% inhibitory concentration (IC50) (usually the concentration that gives 50% inhibition) is 0.5 to 2.5 µM.

With `Cn1nc2c(c1C(=O)Nc1ccnc(C(F)(F)F)c1)CCCc1ccccc1-2` [Compound I-252], the IC50 was in the range of 2.5 to 10 µM.

`Cn1nc(C(=O)Nc2ccnc(C(F)(F)F)c2)c2c1-c1ccccc1CCC2` [Compound I-253] showed a 50% inhibitory concentration (IC50) of more than 10 µM.

`Cn1nc2c(c1C(=O)Nc1cnc(-n3nccn3)c(Cl)c1)CCCc1ccccc1-2` [Compound I-254] registered a 50% inhibitory concentration (IC50) of 0.5 to 2.5 µM.

For `Cn1nc(C(=O)Nc2cnc(-n3nccn3)c(Cl)c2)c2c1-c1ccccc1CCC2` [Compound I-255], the IC50 is more than 10 µM.

`Cn1nc2c(c1C(=O)Nc1cnc(-n3nccn3)c(Cl)c1)CCOc1ccccc1-2` [Compound I-256]: the concentration for half-maximal inhibition (IC50) is more than 10 µM.

The molecule `Cn1nc2c(c1C(=O)Nc1ccnc(C(F)(F)F)c1)CCc1ccccc1-2` [Compound I-258] displayed an IC50 of 2.5 to 10 µM.

`Cn1nc2c(c1C(=O)Nc1cnc(-n3nccn3)c(Cl)c1)CCc1ccccc1-2` [Compound I-259] gave a concentration for half-maximal inhibition (IC50) of more than 10 µM.

Regarding `Cn1nc(C(=O)Nc2ccnc(C(F)(F)F)c2)c2c1-c1ccccc1CC2` [Compound I-260], the IC50 lay within 0.5 to 2.5 µM.

Molecule `Cn1nc(-c2c(F)ccc3ncsc23)c(C(F)(F)F)c1C(=O)Nc1ccnc(C(F)(F)F)c1` [Compound I-280] returned a half-inhibitory concentration (IC50) of less than 0.5 µM.

In turn, `CNc1nc2cccc(-c3nn(C)c(C(=O)Nc4ccnc(C(F)(F)F)c4)c3C(F)(F)F)c2s1` [Compound I-281] had a 50% inhibitory concentration (IC50) of 2.5 to 10 µM.

The molecule `Cn1nc(-c2cccc3ncsc23)c(C(F)(F)F)c1C(=O)Nc1ccnc(C2CC2)c1` [Compound I-282] showed a concentration for half-maximal inhibition (IC50) of more than 10 µM.

For the molecule `Cc1cn2c(-c3nn(C)c(C(=O)Nc4ccnc(C5CC5)c4)c3C(F)(F)F)cccc2n1` [Compound I-283], the 50% inhibitory concentration (IC50) is more than 10 µM.

The molecule `Cn1nc(-c2cccc3nscc23)c(C(F)(F)F)c1C(=O)Nc1cnc(-n2nccn2)c(Cl)c1` [Compound I-285] came in with a half-maximal inhibitory concentration (IC50) of less than 0.5 µM.

The molecule `Cn1nc(-c2cccc3ncsc23)c(C(F)(F)F)c1C(=O)Nc1cnc(-n2nccn2)c(C(F)F)c1` [Compound I-286] yielded an IC50 of less than 0.5 µM.

In turn, `COc1cc(NC(=O)c2c(C(F)(F)F)c(-c3ccccc3)nn2C)ccn1` [Compound I-287] yielded a 50% inhibitory concentration (IC50) of more than 10 µM.

For `Cc1cc(NC(=O)c2c(C(F)(F)F)c(-c3ccccc3)nn2C)cc(C)n1` [Compound I-288], the IC50 is 2.5 to 10 µM.

For `Cn1nc(-c2ccc(F)c3nccn23)c(C(F)(F)F)c1C(=O)Nc1ccnc(C(F)(F)F)c1` [Compound I-291], the IC50 lay in the range of 0.5 to 2.5 µM.

In the case of `CN(C)c1nc2cccc(-c3nn(C)c(C(=O)Nc4ccnc(C(F)(F)F)c4)c3C(F)(F)F)c2s1` [Compound I-292], the IC50 is more than 10 µM.

Consider `COc1nc2cccc(-c3nn(C)c(C(=O)Nc4ccnc(C(F)(F)F)c4)c3C(F)(F)F)c2s1` [Compound I-293], for which the half-inhibitory concentration (IC50) was more than 10 µM.

`COc1nc2cccc(-c3nn(C)c(C(=O)Nc4cnc(-n5nccn5)c(Cl)c4)c3C(F)(F)F)c2s1` [Compound I-294] came in with an IC50 of less than 0.5 µM.

Turning to `Cn1nc(-c2cncc3ncccc23)c(C(F)(F)F)c1C(=O)Nc1ccnc(C(F)(F)F)c1` [Compound I-295], the half-maximal inhibitory concentration (IC50) lay in the range of 2.5 to 10 µM.

Regarding `Cn1nc(-c2c(F)ccc3nccn23)c(C(F)(F)F)c1C(=O)Nc1ccnc(C(F)(F)F)c1` [Compound I-296], the concentration for half-maximal inhibition (IC50) fell in the range of 0.5 to 2.5 µM.

Consider `Cc1nc2cccc(-c3nn(C)c(C(=O)Nc4cnc(-n5nccn5)c(Cl)c4)c3C(F)(F)F)c2s1` [Compound I-297], for which the half-inhibitory concentration (IC50) was less than 0.5 µM.

In turn, `Cc1nc2cccc(-c3nn(C)c(C(=O)Nc4ccnc(C5CC5)c4)c3C(F)(F)F)c2s1` [Compound I-298] displayed an IC50 of more than 10 µM.

For the molecule `Cn1nc(-c2cccc3nc(N)sc23)c(C(F)(F)F)c1C(=O)Nc1cnc(-n2nccn2)c(Cl)c1` [Compound I-299, 3-(2-aminobenzo[d]thiazol-7-yl)-N-(5-chloro-6-(2H-1,2,3-triazol-2-yl)pyridin-3-yl)-1-methyl-4-(trifluoromethyl)-1H-pyrazole-5-carboxamide], the 50% inhibitory concentration (IC50) was less than 0.5 µM.
